Here are results for 16 compounds from patent US6083987A, “Phenylenediamine derivative, radical scavenger, brain-infarction depressant, and brain-edema depressant” (Shiseido Co., Ltd., priority 1998, dated 2000).

A short description of experiment [1]: Radical Eliminating Effect Test (DPPH). Type of experiment: biochemical. Conditions: 10 μM sample compound, 0.1 mM DPPH, pH 5.5, 30 minutes, room temperature. The protocol: Radical Eliminating Effect Test (DPPH)
Radical-eliminating ability of a sample drug is studied in terms of its reaction amount and reactivity with respect to α, α-diphenyl-β-picrylhydrazyl (DPPH) which is a stable radical.
Method of Uchiyama et al. (Japanese Journal of Pharmacology, vol. 88, pp. 678-683, 1968) was used. Namely, to a solution containing 20 mM acetic acid buffer (pH 5.5), 60% ethanol, and 10 μM of a sample compound, DPPH was added so as to yield a concentration of 0.1 mM. The resulting mixture was stirred and then its change in absorbance (ABS) at 517 nm was measured for 30 minutes at room temperature. Here, the sample compound was used as being dissolved in dimethylsulfoxide (DMSO). While the final concentration of DMSO was 10%, no influence upon the present system was observed.
The DPPH reducing ratio of the sample compound at the concentration of 10 μM was calculated by the following equation:
reducing ratio (%)={1-(ABS after 30 minutes/initial ABS)}×100
On the technique in general: DPPH is a stable violet radical that fades when it is reduced.

In a further experiment the test system is rat brain homogenate. Kind of experiment: Lipid Peroxidation Inhibition Test. Type of experiment: biochemical, rat (SD-line male). Conditions: 1 μM sample compound, pH 7.4, 1 hour at 37° C., TBA method. The text has this: Lipid Peroxidation Inhibition Test
In an automatic oxidation system using a rat brain homogenate, whether a sample compound having a radical-eliminating effect can actually have a lipid peroxidation inhibitory activity or not is investigated and its effectiveness is comparatively studied.
With reference to method of Shimamoto et. al. (Clinical Study of Free Radical, vol. 1, pp. 91-95, 1987), the following method was used. An SD-line male rat (7-week-old) was bled to death with a physiological saline perfusion under pentobarbital anesthesia. Then, its hemisphaerium cerebri was taken out and, while being cooled with ice, a 19-fold amount of 20 mM phosphoric acid buffer (pH 7.4) was added thereto. The resulting mixture was homogenized. To this mixture, 1 μM of the sample compound was added. After the resulting mixture was incubated for 1 hour at 37° C., the amount of generated lipid peroxide was determined by TBA method. Namely, to 0.2 ml of the homogenate, 0.2 ml of 8.1% SDS, 1.5 ml of 20% acetic acid buffer (pH 3.5), and 1.5 ml of 0.8% TBA reagent were added. The resulting mixture was incubated for 1 hour at 95° C. and then rapidly cooled with ice. Subsequently, 1 ml of distilled water and 5 ml of n-butanol/pyridine mixed solution (15:1, v/v) were added thereto and the mixture was stirred. After the mixture was centrifuged, the butanol layer was collected therefrom and its absorbance (a) at 535 nm was measured as compared with a blank. Also, as a reference liquid, a 10 μM solution of 1,1,3,3-tetraethoxypropane (TEP) was added in place of the brain homogenate and its absorbance (A) was measured in a similar manner. In the blank, a phosphoric acid buffer was used in place of the brain homogenate. The peroxide concentration was calculated by the following equation and defined as the brain lipid peroxide amount: […]
peroxide concentration (nmol/g wet weight)=a/A×100
The sample compound was used as being dissolved in dimethylsulfoxide (DMSO). While the final concentration of DMSO was 2%, no influence upon the present system was observed.
The lipid peroxidation inhibitory rate of the sample compound at the concentration of 1 μM was calculated from the amount of increase in lipid peroxide in solvent-added group (M) and that in sample compound added group (m): […]
lipid peroxidation inhibitory rate (%)={1-(m/M)}×100

The test system of experiment [2] is middle cerebral artery (MCA) infarction model. Kind of experiment: Brain Infarction Inhibition Test (MCA infarction model). Type of experiment: in vivo, rat (Crj:Fischer-344 line male). Conditions: for Brain infarction inhibitory ratio: dose was 100 mg/kg, 2 hours ischemia, 2 hours reperfusion, i.p. 20 minutes before or i.v. simultaneously with reperfusion, * p < 0.05. As to the method: Brain Infarction Inhibition Test i) Meaning The brain infarction inhibitory activity in vivo is studied. According to this test, it can be judged whether the peripherally administered sample compound can pass through the blood-brain barrier or not. ii) Method For the experiment, 9 to 10-week-old Crj:Fischer-344 line male rats were used. Each of all the soluble sample compounds was dissolved in a physiological saline and then administered intravenously or intraperitoneally. Each of insoluble ones was suspended in a physiological saline containing 0.1% Tween 80 and administered intraperitoneally. Also, those dissolved in a physiological saline containing 0.5% Tween 80 were used for intravenous administration. The intraperitoneal administration was effected 20 minutes before reperfusion, whereas the intravenous administration was effected simultaneously with reperfusion. As a control, only the base was administered. The surgical operation was effected in a manner similar to method of Koizumi et al. (Japanese Journal of Stroke, vol. 8, pp. 1-8, 1986) so as to form a middle cerebral artery (MCA) infarction model. Namely, the rat was subjected to inhalation anesthesia with 4% halothane and then, while the anesthesia was maintained with 1% halothane, fixed on face-up position. The neck portion was subjected to median incision such that the common carotid artery and outer carotid artery around the right carotid artery branching portion were separated from their surrounding connecting tissues and then ligated with a silk string. Further, the inner carotid artery starting portion was surrounded by a silk string so as to be ready for ligation and fixation which would be effected after insertion of an embolus. Then, the common carotid artery was incised and, from there, an embolus having a length of about 16 mm, in which a 4-0 surgical nylon string had been coated with a dental impression material, was inserted toward the inner carotid artery and its end near the nylon string was ligated and fixed to the inner carotid artery with the above mentioned silk string. Also, during the surgical operation, the body temperature was maintained by a small animal body temperature control apparatus in order to prevent it from lowering upon the whole anesthesia processes. According to the foregoing operation, brain ischemia was effected for 2 hours and then the embolus was pulled out so as to effect reperfusion. The brain was taken out two hours after the reperfusion and then 4 pieces of crown-like separated strips were prepared by 2-mm intervals from the lambda level toward the downstream. These strips were immersed in 2% triphenyltetrazorium chloride (TTC) solution and incubated at 37° C., for 10 minutes. Thus dyed brain strips were immersed in a phosphate-buffered 8% formalin solution for 1 to 2 days and then photographed under a stereo-microscope ([…]). Thereafter, for each crown-like strip, the area of infarction region was measured by Planimeter ([…]) Judgment Standard The effects of the sample compound were represented by its individual inhibitory rate (%) which used the total area of the infarction regions, which had not been dyed with TTC in the 4 strips. The significance test was effected by student t-test. individual inhibitory rate(%)={1-(value in sample group/value in control group)}×100

Experiment [3] deals with MCA infarction reperfusion model. Kind of experiment: Brain Edema Inhibition Test (MCA infarction reperfusion model). Type of experiment: in vivo, rat (Fischer). The settings on record: dose was 100 mg/kg; i.p. 20 minutes before reperfusion; two-hour ischemia and two-hour reperfusion; brain moisture content. The text has this: Brain Edema Inhibition Test
The brain edema inhibitory activity in vivo is confirmed. According to this test, it can be judged whether the peripherally administered sample compound can pass through the blood-brain barrier or not.
By using a 7 to 9-week-old Fischer rat (Charles River Japan Inc.), an MCA infarction reperfusion model was formed according to method of Koizumi et al. (Japanese Journal of Stroke, vol. 8, pp. 1-8, 1986). Namely, the rat was fixed face-up position under anesthesia with 2% halothane and then its neck portion was subjected to median incision so as to separate the right common carotid artery therefrom to the carotid artery branching portion while carefully keeping the vagus nerve. The outer carotid artery and inner carotid artery around the carotid artery branching portion were separated from their surrounding connecting tissues. Then, the common carotid artery and outer carotid artery were ligated with a silk string. Further, the inner carotid artery starting portion was surrounded by a silk string so as to be ready for ligation and fixation which would be effected after insertion of an embolus string. Then, the common carotid artery was incised and, from there, an embolus string was inserted toward the inner carotid artery by about 15 to 16 mm and then ligated and fixed to the inner carotid artery with the above mentioned silk string. As a result of the foregoing operation, the tip of the embolus string proceeded beyond the MCA branching portion so as to enter the anterior cerebral artery by about 1 to 2 mm and formed infarction at the MCA inlet by the body portion of the embolus string. After the embolus string blocking the MCA starting portion was left for a predetermined time, it was pulled out under halothane anesthesia to effect reperfusion. Here, in this model, since the right common carotid artery has been ligated, the blood flow is supposed to be restarted from the left inner carotid artery and vertebral-basilar by way of the anterior and posterior communicating arteries. This experiment effected two-hour ischemia and two-hour reperfusion.
Here, the embolus string was prepared in the following manner. Namely, a tip of a 4-0 surgical nylon string having a total length of 16 mm was held over an alcohol lamp so as to form a ball with a diameter of 0.2 to 0.3 mm and then a length of about 5 mm on the nearer side therefrom was coated with a dental impression material with reference to the size of the ball, thereby forming the embolus string.
The brain moisture content was measured by wet and dry weight method. […] Further, after being dried at 110° C. for 24 hours, their weight was measured again to yield dry weight. From thus obtained wet weight and dry weight, the brain moisture content was determined by the following equation: […]

With `CC(C)Cc1cc(C(=O)Nc2ccc(N(C)C)cc2)ccc1O` [Example 1], the DPPH reducing ratio in experiment [1] was 22.9%. Further, the “Lipid peroxidation inhibitory ratio” value with rat brain homogenate is listed as 40.1%. Besides, the “Brain infarction inhibitory ratio” value in experiment [2] was 53.0%. For the same compound, the “Brain edema inhibitory ratio” value in experiment [3] came to 2.0%.

In the case of `CC(C)Cc1ccc(O)c(C(=O)Nc2ccc(N(C)C)cc2)c1` [Example 2], the DPPH reducing ratio in experiment [1] was found to be 17.7%. Further, in the experiment with rat brain homogenate, the “Lipid peroxidation inhibitory ratio” value stood at 26.8%. Further, the “Brain infarction inhibitory ratio” value in experiment [2] is 41.2%.

Take `CC(C)Cc1cccc(C(=O)Nc2ccc(N(C)C)cc2)c1O` [Example 3]: the DPPH reducing ratio in experiment [1] was 22.5%. For the same compound, the “Lipid peroxidation inhibitory ratio” value with rat brain homogenate is reported as 22.7%.

For `CC(C)Cc1ccc(C(=O)Nc2ccc(N(C)C)cc2)cc1O` [Example 4], the DPPH reducing ratio in experiment [1] turned out to be 16.4%. For the same compound, the “Lipid peroxidation inhibitory ratio” value in the experiment on rat brain homogenate is on record as 13.5%.

Take `CC(C)Cc1nccc(C(=O)Nc2ccc(N(C)C)cc2)c1O` [Example 5]: in experiment [1], the DPPH reducing ratio is recorded as 16.1%. In the experiment with rat brain homogenate, the “Lipid peroxidation inhibitory ratio” value is listed as 29.5%. Also, the “Brain infarction inhibitory ratio” value in experiment [2] was 19.0%. Also, in experiment [3], the “Brain edema inhibitory ratio” value is reported as 38.1%.

With `COc1ccc(COc2ccc(C(=O)Nc3ccc(N(C)C)cc3)cc2CC(C)C)cc1` [Example 6], the DPPH reducing ratio in experiment [1] worked out at 25.1%. In the experiment with rat brain homogenate, the “Lipid peroxidation inhibitory ratio” value was 41.7%. Further, in experiment [3], the “Brain edema inhibitory ratio” value is on record as 1.5%.

With `COc1ccc(C(=O)Nc2ccc(N(C)C)cc2)cc1CC(C)C` [Example 7], in experiment [1], the DPPH reducing ratio turned out to be 20.7%. Also, the “Lipid peroxidation inhibitory ratio” value in the experiment with rat brain homogenate came out at 48.9%.

Take `CC(C)=CCC/C(C)=C/COc1ccc(C(=O)Nc2ccc(N(C)C)cc2)cc1CC(C)C` [Example 8]: the DPPH reducing ratio in experiment [1] came out at 21.2%. For the same compound, in the experiment on rat brain homogenate, the “Lipid peroxidation inhibitory ratio” value came to 41.7%.

Regarding `CC(C)Cc1cc(C(=O)Nc2ccc(N(C)C)cc2)ccc1OCc1ccccc1` [Example 9], in experiment [1], the DPPH reducing ratio came to 25.5%. Moreover, the “Lipid peroxidation inhibitory ratio” value with rat brain homogenate is listed as 28.1%. The “Brain infarction inhibitory ratio” value in experiment [2] was 39.9%. Moreover, the “Brain edema inhibitory ratio” value in experiment [3] is 19.2%.

For `CC(C)Cc1cccc(C(=O)Nc2ccc(N(C)C)cc2)c1OCc1ccccc1` [Example 10], in experiment [1], the DPPH reducing ratio is 11.5%. In addition, the “Lipid peroxidation inhibitory ratio” value with rat brain homogenate was 28.2%. In addition, in experiment [2], the “Brain infarction inhibitory ratio” value came out at 18.7%. Moreover, in experiment [2] (rat, in vivo), the “brain infarction inhibition activity, in words” value is “showed brain infarction inhibition tendency”.

As for `CC(C)Cc1cc(S(=O)(=O)Nc2ccc(N(C)C)cc2)ccc1O` [Example 12], the DPPH reducing ratio in experiment [1] was 61.8%. For the same compound, the “Lipid peroxidation inhibitory ratio” value with rat brain homogenate came to 24.2%. In addition, the “Brain infarction inhibitory ratio” value in experiment [2] was determined as 0.7%.

As to `CC(C)Cc1cc(S(=O)(=O)Nc2ccc(N(C)C)cc2)ccc1OC(=O)c1ccccc1` [Example 13], the DPPH reducing ratio in experiment [1] worked out at 58.9%. The “Lipid peroxidation inhibitory ratio” value in the experiment on rat brain homogenate is reported as 13.4%.

`CC(C)Cc1cc(C(=S)Nc2ccc(N(C)C)cc2)ccc1O` [Example 14]: the DPPH reducing ratio in experiment [1] is recorded as 18.3%. Moreover, the “Lipid peroxidation inhibitory ratio” value in the experiment on rat brain homogenate is reported as 33.9%.

As for `CC(C)Cc1cc(CC(=O)Nc2ccc(N(C)C)cc2)ccc1OCc1ccccc1` [Example 15], the DPPH reducing ratio in experiment [1] is listed as 12.8%. Also, the “Lipid peroxidation inhibitory ratio” value with rat brain homogenate stood at 24.8%. Moreover, the “Brain infarction inhibitory ratio” value in experiment [2] was found to be 2.8%.

`CC(C)Cc1cc(CC(=O)Nc2ccc(N(C)C)cc2)ccc1O` [Example 16]: the DPPH reducing ratio in experiment [1] amounted to 21.0%. Moreover, the “Lipid peroxidation inhibitory ratio” value in the experiment on rat brain homogenate is recorded as 14.4%.

As to `CC(C)Cc1cccc(CC(=O)Nc2ccc(N(C)C)cc2)c1O` [Example 17], the DPPH reducing ratio in experiment [1] was found to be 18.7%. In addition, in the experiment on rat brain homogenate, the “Lipid peroxidation inhibitory ratio” value was 10.4%.
